For assay [1], the system named is Pyricularia oryzae causing neck blast. Nature of the assay: whole plant or invertebrate. The settings on record: for Observed efficacy of stobilurin fungicide (%): Table 5(a), Picoxystrobin 67.8 g a.i./ha, Trifloxystrobin 100 g a.i./ha alone. Format: in vivo.
Assay [2] has as its system rice neck blast fungi. It is filed as in vivo, Pyricularia oryzae. To be noted: Prothioconazole 120 gai/ha alone or with Azoxystrobin 280, Picoxystrobin 67, Trifloxystrobin 100 gai/ha.

We go through four compounds from patent US20250113825A1 (priority 2022, published 2025).

Molecules are shown by their SMILES.

Take `CC(C)OC(=O)C(C(=O)OC(C)C)=C1SCCS1` [Isoprothiolane]: in assay [1] (Table 5(b), Isoprothiolane 250 g a.i./ha alone), the “Observed efficacy of isoprothiolane (%)” value worked out at 48%.

As for `CO/C=C(/C(=O)OC)c1ccccc1COc1cccc(C(F)(F)F)n1` [Picoxystrobin], the “Observed efficacy of stobilurin fungicide (%)” value in assay [1] was determined as 42%.

For `OC(Cc1ccccc1Cl)(Cn1nc[nH]c1=S)C1(Cl)CC1` (centres unmarked) [Prothioconazole, 2-[2-(1-chlorocyclopropyl)-3-(2-chlorophen-yl)-2-hydroxypropyl]-2,4-dihydro-[1,2,4-]-triazole-3-thione], the “% Control (rice neck blast)” value in assay [2] was 41.49%. Moreover, the inhibition at 120 g/ha in assay [1] (Pyricularia oryzae, read-out: Observed efficacy of demethylation inhibitor fungicide (%)) turned out to be 49%.

Take `CON=C(C(=O)OC)c1ccccc1CON=C(C)c1cccc(C(F)(F)F)c1` [Trifloxystrobin]: the “Observed efficacy of stobilurin fungicide (%)” value in assay [1] worked out at 60%.
